From patent US12240844B2 (Voronoi, Inc., priority 2019, dated 2025)

Experiments:
Format in all cases: biochemical
[1] = molecular target: T1, human GST-DYRK1A (full length) (Homo sapiens, UniProt Q13627); test: GST-DYRK1A enzyme inhibition, ADP-Glo kinase assay; conditions: read-out: DYRK1 IC50
T1 construct: purified human GST-DYRK1A (full length, Thermo scientifics) enzyme; GST; purchased Thermo scientifics
Protocol: (§1) In order to evaluate the inhibitory activity of the compounds according to the present invention on LRRK2, LRRK2 (G2019S), DYRK1, CLK1 and TTK kinases, the following experiment was performed.
(§2) Example compounds were reacted with the purified human GST-DYRK1A (full length, Thermo scientifics) enzyme to evaluate the enzyme inhibitory ability as follows. As the reaction buffer, the composition of 40 mM Tris-HCl pH 7.4, 20 mM MgCl2, 0.5 mg/mL BSA, and 50 uM DTT was used, and the reaction of all test materials was performed on the reaction buffer. During the test, the human GST-DYRK1A (full length, 10 ng) enzyme, the purified ATP (10 uM), and a specific substrate solution were reacted at 25° C. for 1 hour, and then the enzyme activity was identified using the in vitro ADP-Glo™ kinase assay (promega). Luminescence was measured by reacting the enzyme activity reaction solution, an ADP-Glo reaction solution and the enzyme potency detection solution in a ratio of 2:2:1. The degree of inhibition of enzyme activity according to the treatment concentrations of the respective compounds was calculated based on the fluorescence of the enzyme activity of a solvent control group that was not treated with the compound, where the concentration of each compound to inhibit enzyme activity inhibition by 50% was determined as an IC50 (nM) value. The IC50 of each compound was determined in triplicate data sets and obtained using Prism (version 7.01, GraphPad) software.
(§3) In the table below, the following designations were used for the evaluation of enzyme inhibitory ability.

[2] = molecular target: T2, human GST-CLK1 (129-end) (Homo sapiens, UniProt P49759); test: GST-CLK1 enzyme inhibition, ADP-Glo kinase assay; conditions: ATP 10 uM
T2 construct: purified human GST-CLK1 (129-end, Signalchem) enzyme; GST; purchased Signalchem
T2 sequence (P49759 129-484 limits assumed): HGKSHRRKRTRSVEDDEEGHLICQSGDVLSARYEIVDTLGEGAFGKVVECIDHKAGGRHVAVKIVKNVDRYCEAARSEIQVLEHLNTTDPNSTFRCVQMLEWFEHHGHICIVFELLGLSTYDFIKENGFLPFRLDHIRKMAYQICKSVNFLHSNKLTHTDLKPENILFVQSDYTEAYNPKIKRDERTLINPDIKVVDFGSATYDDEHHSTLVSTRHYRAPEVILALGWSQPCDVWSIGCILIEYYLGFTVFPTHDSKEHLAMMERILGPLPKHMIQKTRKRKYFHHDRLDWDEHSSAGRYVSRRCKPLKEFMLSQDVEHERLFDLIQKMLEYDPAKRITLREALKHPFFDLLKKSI
Protocol: as §1
as §2, with “GST-CLK1 (129-end, Signalchem)” for “GST-DYRK1A (full length, Thermo scientifics)”, “GST-CLK1 (129-end, 3” for “GST-DYRK1A (full length, 10”
as §3

[3] = molecular target: LRRK2 (G2019S) (Homo sapiens, UniProt Q5S007, G2019S); test: LRRK2 G2019S enzyme inhibition, ADP-Glo kinase assay; set-up: purchased SignalChem L10-12GG
Sequence of LRRK2 (G2019S) (Q5S007 970-2527 G2019S limits assumed): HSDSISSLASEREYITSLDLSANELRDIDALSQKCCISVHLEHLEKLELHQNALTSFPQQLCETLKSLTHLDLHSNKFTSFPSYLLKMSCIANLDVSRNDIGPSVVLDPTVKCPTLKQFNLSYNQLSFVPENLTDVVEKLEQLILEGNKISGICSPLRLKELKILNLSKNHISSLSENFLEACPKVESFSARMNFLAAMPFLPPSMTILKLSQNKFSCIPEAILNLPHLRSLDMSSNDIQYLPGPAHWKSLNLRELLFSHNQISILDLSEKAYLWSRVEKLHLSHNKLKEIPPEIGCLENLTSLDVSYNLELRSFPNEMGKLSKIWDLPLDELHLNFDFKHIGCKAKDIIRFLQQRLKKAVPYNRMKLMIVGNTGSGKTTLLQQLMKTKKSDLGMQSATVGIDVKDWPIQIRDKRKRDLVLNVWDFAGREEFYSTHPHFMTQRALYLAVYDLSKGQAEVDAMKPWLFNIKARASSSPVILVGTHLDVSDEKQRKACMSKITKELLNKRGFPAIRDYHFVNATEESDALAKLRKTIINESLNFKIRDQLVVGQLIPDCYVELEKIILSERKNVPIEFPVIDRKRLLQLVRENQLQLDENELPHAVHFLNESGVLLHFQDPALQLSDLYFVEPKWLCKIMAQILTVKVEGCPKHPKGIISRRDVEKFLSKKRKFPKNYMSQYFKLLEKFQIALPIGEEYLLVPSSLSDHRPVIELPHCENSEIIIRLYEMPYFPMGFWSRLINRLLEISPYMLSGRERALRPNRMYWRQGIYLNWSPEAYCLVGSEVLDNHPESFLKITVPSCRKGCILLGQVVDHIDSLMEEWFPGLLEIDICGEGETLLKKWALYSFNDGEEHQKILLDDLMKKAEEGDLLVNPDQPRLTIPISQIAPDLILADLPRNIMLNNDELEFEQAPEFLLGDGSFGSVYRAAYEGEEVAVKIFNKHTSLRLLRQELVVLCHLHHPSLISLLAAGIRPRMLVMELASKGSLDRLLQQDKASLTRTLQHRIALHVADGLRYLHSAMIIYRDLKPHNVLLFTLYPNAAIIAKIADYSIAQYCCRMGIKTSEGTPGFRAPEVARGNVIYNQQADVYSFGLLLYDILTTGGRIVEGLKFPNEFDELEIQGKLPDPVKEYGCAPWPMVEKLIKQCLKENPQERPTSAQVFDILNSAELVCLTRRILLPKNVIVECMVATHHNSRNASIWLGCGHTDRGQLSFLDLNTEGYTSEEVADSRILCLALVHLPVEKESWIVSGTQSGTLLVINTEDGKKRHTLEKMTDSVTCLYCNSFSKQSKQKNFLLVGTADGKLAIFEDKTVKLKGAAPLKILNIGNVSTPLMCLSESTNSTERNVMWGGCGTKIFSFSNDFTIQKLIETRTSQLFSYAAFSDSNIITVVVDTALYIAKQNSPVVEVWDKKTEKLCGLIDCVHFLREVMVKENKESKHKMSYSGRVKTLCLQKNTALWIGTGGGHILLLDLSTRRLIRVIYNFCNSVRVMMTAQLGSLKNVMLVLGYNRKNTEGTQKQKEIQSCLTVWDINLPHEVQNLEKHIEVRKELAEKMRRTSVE
Protocol: as §1
Example compounds were reacted with the purified human LRRK2 G2019S (L10-12GG, SignalChem) enzyme to evaluate the enzyme inhibitory ability as follows. The reaction buffer was used as the composition of 40 mM Tris-HCl pH7.4, 20 mM MgCl2, 0.5 mg/ml BSA and 50 μM DTT, and the reaction of all test materials was performed on the reaction buffer. The compound was diluted with 10 mM DMSO stock in 12 steps by a serial dilution method, and the enzyme activity was measured at the final compound concentrations of 50, 10, 2, 0.4, 0.08, 0.016, 0.0032, 0.00064, 0.000128, 0.0000256, 0.00000512 and 0.000001024 μM. In the test, the human LRRK2 G2019S (16 ng) enzyme was reacted with the purified ATP (25 μM) and an enzyme substrate (0.2 μg) at 25° C. for 2 hours, and then the enzyme activity was identified using the in vitro ADP-Glo™ kinase assay (promega). The enzyme activity reaction liquid, an ADP-Glo reaction liquid and an enzyme potency detection solution were reacted in a ratio of 2:2:1, and the degree of inhibition of enzyme activity was measured by Luminescence. The degree of inhibition of enzyme activity according to the treatment concentrations of the respective compounds was calculated based on the fluorescence of the enzyme activity of a solvent control group that was not treated with the compound, where the concentration of each compound to inhibit enzyme activity inhibition by 50% was determined as an IC50 (nM) value and obtained using Prism (Version 5.01, GraphPad) software.
as §3

Row | IC50 [1] [µM] | IC50 [2] [µM] | IC50 [3] [µM] | Compound
1 | 0.301 to 1 | 0.301 to 1 | < 0.1 | CCCNc1cc(Nc2ccc(S(=O)(=O)N3CCC(N4CCOCC4)CC3)cc2OC)nc2[nH]ccc12 [Example 20, N^6-(2-methoxy-4-((4-morpholinopiperidin-1-yl)sulfonyl)phenyl)-N^4-propyl-1H-pyrrolo[2,3-b]pyridine-4,6-diamine]
2 | 0.301 to 1 | 0.301 to 1 | 0.301 to 1 | COc1cc(S(C)(=O)=O)ccc1Nc1cc(NCCS(C)(=O)=O)c2cc[nH]c2n1 [Example 31, N^6-(2-methoxy-4-(methylsulfonyl)phenyl)-N^4-(2-(methylsulfonyl)ethyl)-1H-pyrrolo[2,3-b]pyridine-4,6-diamine]
3 | < 0.1 | < 0.1 | < 0.1 | CCNc1cc(Nc2ccc(C(=O)N3CCO[C@H](C)C3)c3c2OCC3)nc2[nH]cc(C(F)(F)F)c12 [Example 260, (R)-(7-((4-(ethylamino)-3-(trifluoromethyl)-1H-pyrrolo[2,3-b]pyridin-6-yl)amino)-2,3-dihydrobenzofuran-4-yl)(2-methylmorpholino) methanone]
4 | < 0.1 | 0.101 to 0.3 | 0.301 to 1 | CCNc1cc(Nc2ccc(C(=O)N3C[C@@H](C)O[C@@H](C)C3)c3c2OCC3)nc2[nH]cc(C(F)(F)F)c12 [Example 258, ((2S,6R)-2,6-dimethylmorpholino) (7-((4-(ethylamino)-3-(trifluoromethyl)-1H-pyrrolo[2,3-b]pyridin-6-yl)amino)-2,3-dihydrobenzofuran-4-yl)methanone]
5 | < 0.1 | < 0.1 | < 0.1 | CCNc1cc(Nc2ccc(C(=O)N3CCC(N4C[C@@H](C)O[C@@H](C)C4)CC3)c3c2OCC3)nc2[nH]cc(C(F)(F)F)c12 [Example 263, (4-((2S,6R)-2,6-dimethylmorpholino)piperidin-1-yl)(7-((4-(ethylamino)-3-(trifluoromethyl)-1H-pyrrolo[2,3-b]pyridin-6-yl)amino)-2,3-dihydrobenzofuran-4-yl)methanone]
6 | 0.301 to 1 | 0.301 to 1 | 0.301 to 1 | COc1cc(S(=O)(=O)N2CCOCC2)ccc1Nc1cc(NC(C)C)c2cc[nH]c2n1 [Example 13, N^4-isopropyl-N^6-(2-methoxy-4-(morpholinosulfonyl)phenyl)-1H-pyrrolo[2,3-b]pyridine-4,6-diamine]
7 | 0.101 to 0.3 | < 0.1 | < 0.1 | CCNc1cc(Nc2ccc(C(=O)N3CCN(C4CCCC4)CC3)c3c2OCC3)nc2[nH]cc(C(F)(F)F)c12 [Example 251, (4-cyclopentylpipe razin-1-yl)(7-((4-(ethylamino)-3-(trifluoromethyl)-1H-pyrrolo[2,3-b]pyridin-6-yl)amino)-2,3-dihydrobenzofuran-4-yl)methanone]
8 | 0.301 to 1 | 0.301 to 1 | 0.101 to 0.3 | CCNc1cc(Nc2ccc(C(=O)N3CCOCC3)c3c2OCCO3)nc2[nH]ccc12 [Example 3, (8-((4-(ethylamino)-1H-pyrrolo[2,3-b]pyridin-6-yl)amino)-2,3-dihydrobenzo[b] [1,4]dioxin-5-yl)(morpholino) methanone 2,2,2-trifluoroacetate]
9 | 0.301 to 1 | 0.301 to 1 | < 0.1 | CNc1cc(Nc2ccc(C(=O)N3CCOCC3)c3c2OCCO3)nc2[nH]cc(Cl)c12 [Example 56, (8-((3-chloro-4-(methylamino)-1H-pyrrolo[2,3-b]pyridin-6-yl)amino)-2,3-dihydrobenzo[b] [1,4]dioxin-5-yl)(morpholino) methanone 2,2,2-trifluoroacetate]
10 | 0.301 to 1 | 0.301 to 1 | 0.301 to 1 | CCCNc1cc(Nc2ccc(S(=O)(=O)N3CCOCC3)cc2OC)nc2[nH]cc(Cl)c12 [Example 66, 3-chloro-N^6-(2-methoxy-4-(morpholinosulfonyl)phenyl)-N^4-propyl-1H-pyrrolo[2,3-b]pyridine-4,6-diamine]
11 | 0.301 to 1 | 0.301 to 1 | 0.101 to 0.3 | CCNc1cc(Nc2ccc(S(=O)(=O)N3CCOCC3)cc2OC)nc2[nH]ccc12 [Example 11, N^4-ethyl-N^6-(2-methoxy-4-(morpholinosulfonyl)phenyl)-1H-pyrrolo[2,3-b]pyridine-4,6-diamine 2,2,2-trifluoroacetate]
12 | 0.301 to 1 | 0.301 to 1 | 0.301 to 1 | COc1cc(S(C)(=O)=O)ccc1Nc1cc(NC2CC2)c2c(Cl)c[nH]c2n1 [Example 84, 3-chloro-N^4-cyclopropyl-N^6-(2-methoxy-4-(methylsulfonyl)phenyl)-1H-pyrrolo[2,3-b]pyridine-4,6-diamine]
13 | 0.301 to 1 | 0.301 to 1 | 0.301 to 1 | CCCNc1cc(Nc2ccc(S(C)(=O)=O)cc2OC)nc2[nH]cc(Cl)c12 [Example 82, 3-chloro-N^6-(2-methoxy-4-(methylsulfonyl)phenyl)-N^4-propyl-1H-pyrrolo[2,3-b]pyridine-4,6-diamine]
14 | 0.301 to 1 | 0.301 to 1 | < 0.1 | COc1cc(S(=O)(=O)N2CCOCC2)ccc1Nc1cc(NC2CC2)c2cc[nH]c2n1 [Example 15, N^4-cyclopropyl-N^6-(2-methoxy-4-(morpholinosulfonyl)phenyl)-1H-pyrrolo[2,3-b]pyridine-4,6-diamine]
15 | < 0.1 | < 0.1 | < 0.1 | CCNc1cc(Nc2ccc(C(=O)N3CCN(C(C)C)CC3)c3c2OCC3)nc2[nH]cc(C(F)(F)F)c12 [Example 254, (7-((4-(ethylamino)-3-(trifluoromethyl)-1H-pyrrolo[2,3-b]pyridin-6-yl)amino)-2,3-dihydrobenzofuran-4-yl)(4-isopropylpiperazin-1-yl)methanone]
16 | 0.301 to 1 | 0.301 to 1 | < 0.1 | COc1cc(S(=O)(=O)N2CCC(N3CCOCC3)CC2)ccc1Nc1cc(NCC(C)C)c2cc[nH]c2n1 [Example 21, N^4-isobutyl-N^6-(2-methoxy-4-((4-morpholinopiperidin-1-yl)sulfonyl)phenyl)-1H-pyrrolo[2,3-b]pyridine-4,6-diamine]
17 | 0.301 to 1 | 0.301 to 1 | 0.301 to 1 | COc1cc(S(=O)(=O)N2CCOCC2)ccc1Nc1cc(NC2CC2)c2c(Cl)c[nH]c2n1 [Example 68, 3-chloro-N^4-cyclopropyl-N^6-(2-methoxy-4-(morpholinosulfonyl)phenyl)-1H-pyrrolo[2,3-b]pyridine-4,6-diamine]
18 | 0.301 to 1 | 0.301 to 1 | < 0.1 | COc1cc(S(=O)(=O)N2CCC(N3CCOCC3)CC2)ccc1Nc1cc(NC2CC2)c2cc[nH]c2n1 [Example 22, N^4-cyclopropyl-N^6-(2-methoxy-4-((4-morpholinopiperidin-1-yl)sulfonyl)phenyl)-1H-pyrrolo[2,3-b]pyridine-4,6-diamine]
